# Where “and” joins values, the source holds several entries; their conditions need not be identical. Identical values can stand only once. Toxic doses and inconclusive results are not listed.
# Test system: P388 leukemia ip, CD2F1 mice, survival T/C
# Experiment: NCI In Vivo Anticancer Drug Screen. Data for tumor model P388 Leukemia (intraperitoneal) in CD2F1 (CDF1) mice
# Settings: endpoint: median survival time, higher = longer survival
# Procedure, shortened: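 Mice carrying the transplanted tumor received test compound or vehicle. Survival was recorded in each group, and the value is the treated-group measurement divided by that of the vehicle-treated control group.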
# [1] = dose: 25.0 mg/kg/injection, schedule: Q04DX003 (ip), vehicle: saline
# [2] = dose: 50.0 mg/kg/injection, schedule: Q04DX003 (ip), vehicle: saline
# [3] = dose: 50.0 mg/kg/injection, schedule: Q01DX005 (ip), vehicle: saline with Tween-80
# [4] = dose: 100.0 mg/kg/injection, schedule: Q01DX005 (ip), vehicle: saline with Tween-80
# [5] = dose: 200.0 mg/kg/injection, schedule: Q01DX005 (ip), vehicle: saline with Tween-80
# [6] = dose: 60.0 mg/kg/injection, schedule: Q01DX005 (ip), vehicle: saline with Tween-80
# [7] = dose: 120.0 mg/kg/injection, schedule: Q01DX005 (ip), vehicle: saline with Tween-80
# [8] = dose: 240.0 mg/kg/injection, schedule: Q01DX005 (ip), vehicle: saline with Tween-80
# [9] = dose: 400.0 mg/kg/injection, schedule: Q01DX001 (ip), vehicle: saline
# [10] = dose: 100.0 mg/kg/injection, schedule: Q04DX003 (ip), vehicle: saline with Tween-80
# [11] = dose: 200.0 mg/kg/injection, schedule: Q04DX003 (ip), vehicle: saline with Tween-80
# [12] = dose: 50.0 mg/kg/injection, schedule: Q01DX005 (ip), vehicle: Klucel (hydroxypropylcellulose) (HPC)
# [13] = dose: 100.0 mg/kg/injection, schedule: Q01DX005 (ip), vehicle: Klucel (hydroxypropylcellulose) (HPC)
# [14] = dose: 50.0 mg/kg/injection, schedule: Q01DX009 (ip), vehicle: saline with Tween-80
# [15] = dose: 100.0 mg/kg/injection, schedule: Q01DX009 (ip), vehicle: saline with Tween-80
# [16] = dose: 50.0 mg/kg/injection, schedule: Q01DX009 (ip), vehicle: saline
# [17] = dose: 100.0 mg/kg/injection, schedule: Q01DX009 (ip), vehicle: saline
# [18] = dose: 200.0 mg/kg/injection, schedule: Q01DX009 (ip), vehicle: saline
# [19] = dose: 200.0 mg/kg/injection, schedule: Q01DX009 (ip), vehicle: saline with Tween-80
# [20] = dose: 25.0 mg/kg/injection, schedule: Q01DX009 (ip), vehicle: saline with Tween-80
# [21] = dose: 400.0 mg/kg/injection, schedule: Q01DX009 (ip), vehicle: saline with Tween-80
structure (smiles),measurement,setting,value
COC(=O)C[CH2][Sn]([Cl])([Cl])[Cl],T/C,[1],98 % of control
same,T/C,[2],100 % of control
same,T/C,"dose: 100.0 mg/kg/injection, schedule: Q04DX003 (ip), vehicle: saline",100 % of control and 96 % of control
CCCCC(CCCC)[N+](=O)[O-],T/C,[3],108 % of control
same,T/C,[4],110 % of control
same,T/C,[5],103 % of control
CCOC(=O)C1(CN(C)c2ccccc2)C(C(C)=O)=CNc2c(C#N)cnn21 (configuration not stated),T/C,[3],99 % of control
same,T/C,[4],98 % of control
same,T/C,[5],106 % of control
Cc1cc(OCCCCOc2ccc(C#N)cc2)ccc1[N+](=O)[O-],T/C,[6],96 % of control
same,T/C,[7],90 % of control
same,T/C,[8],88 % of control
CC1=CCC2C(C)(C)CCCC2(C)C1CCC(C)(O)C(O)CO (configuration not stated),T/C,"dose: 25.0 mg/kg/injection, schedule: Q01DX005 (ip), vehicle: Klucel + Tween-80",98 % of control
same,T/C,"dose: 50.0 mg/kg/injection, schedule: Q01DX005 (ip), vehicle: Klucel + Tween-80",101 % of control
same,T/C,"dose: 100.0 mg/kg/injection, schedule: Q01DX005 (ip), vehicle: Klucel + Tween-80",98 % of control
same,T/C,"dose: 200.0 mg/kg/injection, schedule: Q01DX005 (ip), vehicle: Klucel + Tween-80",100 % of control
C=C1C(=O)CCC1C(=O)O (configuration not stated),T/C,"dose: 178.0 mg/kg/injection, schedule: Q01DX001 (ip), vehicle: saline",100 % of control
same,T/C,"dose: 266.0 mg/kg/injection, schedule: Q01DX001 (ip), vehicle: saline",109 % of control
same,T/C,[9],114 % of control
same,T/C,"dose: 600.0 mg/kg/injection, schedule: Q01DX001 (ip), vehicle: saline",118 % of control
same,T/C,"dose: 900.0 mg/kg/injection, schedule: Q01DX001 (ip), vehicle: saline",112 % of control
O=[N+]([O-])c1c[nH]n2c([N+](=O)[O-])cnc12,T/C,"dose: 6.25 mg/kg/injection, schedule: Q01DX009 (ip), vehicle: other",91 % of control
same,T/C,"dose: 12.5 mg/kg/injection, schedule: Q01DX009 (ip), vehicle: other",101 % of control
Cc1onc(-c2c(F)cccc2Cl)c1C(=O)Nc1cc2cc([N+](=O)[O-])ccc2oc1=O,T/C,[6],95 % of control
same,T/C,[7],97 % of control
same,T/C,[8],92 % of control
O=C1c2ccccc2-c2nc3ncccc3cc21,T/C,[10],98 % of control
same,T/C,[11],102 % of control
same,T/C,"dose: 400.0 mg/kg/injection, schedule: Q04DX003 (ip), vehicle: saline with Tween-80",102 % of control
Cc1cc(Cl)ccc1NC(=O)C1C(=O)N(c2ccc(Cl)cc2C)C(=O)/C1=N\NC(N)=O (configuration not stated),T/C,[6],101 % of control
same,T/C,[7],93 % of control
same,T/C,[8],98 % of control
CCOC(=O)Nc1cc(NC/C(=N/O)c2ccc([N+](=O)[O-])cc2)c([N+](=O)[O-])c(N)n1,T/C,"dose: 50.0 mg/kg/injection, schedule: Q01DX001 (ip), vehicle: saline with Tween-80",92 % of control
same,T/C,"dose: 100.0 mg/kg/injection, schedule: Q01DX001 (ip), vehicle: saline with Tween-80",92 % of control
same,T/C,"dose: 200.0 mg/kg/injection, schedule: Q01DX001 (ip), vehicle: saline with Tween-80",89 % of control
CCC/C=C(/C=N/Nc1ccc([N+](=O)[O-])cc1[N+](=O)[O-])CC,T/C,"dose: 12.5 mg/kg/injection, schedule: Q01DX005 (ip), vehicle: saline with Tween-80",97 % of control
same,T/C,"dose: 25.0 mg/kg/injection, schedule: Q01DX005 (ip), vehicle: saline with Tween-80",109 % of control
same,T/C,[3],91 % of control and 95 % of control
C1CNC(SCC2CC3CC2C2OC32)=N1 (configuration not stated),T/C,[12],98 % of control
same,T/C,[13],101 % of control
Cc1ccc(C)c([N+](=O)[O-])c1C(=O)O,T/C,"dose: 100.0 mg/kg/injection, schedule: Q04DX003 (ip), vehicle: saline + alcohol",98 % of control
same,T/C,"dose: 200.0 mg/kg/injection, schedule: Q04DX003 (ip), vehicle: saline + alcohol",98 % of control
CC[As](CC)SC1CC(OC(=O)c2ccccc2)C(OC(=O)c2ccccc2)C(COC(=O)c2ccccc2)O1 (configuration not stated),T/C,[14],100 % of control
same,T/C,[15],105 % of control
O=C1c2ccccc2-c2cn(-c3ccccc3)c3cccc1c23,T/C,[12],103 % of control
same,T/C,[13],100 % of control
COc1c(OP2(=S)OCC(C)(C)CO2)cnn(C2CCCCC2)c1=O,T/C,[3],89 % of control
same,T/C,[4],88 % of control
O=C(CN1CCCC1)Nc1nc(-c2ccc(Cl)cc2)cs1,T/C,[3],96 % of control
same,T/C,[4],100 % of control
same,T/C,[5],91 % of control
CC(=O)OCc1c(Cl)nc2n1CCS2,T/C,"dose: 25.0 mg/kg/injection, schedule: Q01DX001 (ip), vehicle: Klucel (hydroxypropylcellulose) (HPC)",103 % of control
same,T/C,"dose: 50.0 mg/kg/injection, schedule: Q01DX001 (ip), vehicle: Klucel (hydroxypropylcellulose) (HPC)",96 % of control
same,T/C,"dose: 100.0 mg/kg/injection, schedule: Q01DX001 (ip), vehicle: Klucel (hydroxypropylcellulose) (HPC)",102 % of control
CNC(=O)CC(N)C(=O)O (configuration not stated),T/C,"dose: 12.5 mg/kg/injection, schedule: Q01DX009 (ip), vehicle: saline",96 % of control
same,T/C,"dose: 25.0 mg/kg/injection, schedule: Q01DX009 (ip), vehicle: saline",94 % of control
same,T/C,[16],101 % of control
same,T/C,"dose: 50.0 mg/kg/injection, schedule: Q01DX009 (ip), vehicle: water",105 % of control
same,T/C,[17],98 % of control
same,T/C,"dose: 100.0 mg/kg/injection, schedule: Q01DX009 (ip), vehicle: water",105 % of control
same,T/C,[18],113 % of control
same,T/C,"dose: 200.0 mg/kg/injection, schedule: Q01DX009 (ip), vehicle: water",109 % of control
O=C1c2ccccc2C(=O)N1C1Cc2nc3ccccc3n2C1=O (configuration not stated),T/C,[6],98 % of control
same,T/C,[7],93 % of control
same,T/C,[8],89 % of control
CC[C@@H](C)[C@H]([C@H](CC(=O)N1CCC[C@@H]1[C@@H](OC)[C@H](C)C(=O)N[C@H](Cc1ccccc1)c1nccs1)OC)N(C)C(=O)[C@H](NC(=O)[C@@H](C(C)C)N(C)C)C(C)C,T/C,"dose: 6.5 micrograms/kg/injection, schedule: Q01DX005 (ip), vehicle: saline + alcohol",155 % of control
same,T/C,"dose: 13.5 micrograms/kg/injection, schedule: Q01DX009 (ip), vehicle: saline + alcohol",173 % of control
CCOC(=O)NCCCCl,T/C,[16],99 % of control
same,T/C,[17],101 % of control
same,T/C,[18],107 % of control
C=CCNCCN1CCN(CCCN2c3ccccc3Sc3ccc(C(F)(F)F)cc32)CC1,T/C,[1],91 % of control
same,T/C,[2],119 % of control and 97 % of control
[Cr+6].[NH-]CCC[NH-].[NH-]CCC[NH-].[NH-]CCC[NH-],T/C,"dose: 200.0 mg/kg/injection, schedule: Q01DX001 (ip), vehicle: saline",95 % of control
same,T/C,[9],90 % of control
C(=C\c1ccc2c(c1)OCO2)/c1ccnnc1,T/C,[16],100 % of control
same,T/C,[17],97 % of control
same,T/C,[18],100 % of control
O=C1CCC(=O)N(CNc2cccc(Cc3cccc(NCN4CC(=O)CCC4=O)c3)c2)C1,T/C,[6],91 % of control
same,T/C,[7],91 % of control
same,T/C,[8],89 % of control
Oc1ccc(N=Nc2nccs2)c(O)c1,T/C,[14],96 % of control
same,T/C,[15],93 % of control
same,T/C,[19],99 % of control
O=C1C2C3C=CC(C2C(=O)N1CCl)C1C2C(=O)N(CCl)C(=O)C2C31 (configuration not stated),T/C,"dose: 6.25 mg/kg/injection, schedule: Q01DX009 (ip), vehicle: saline with Tween-80",105 % of control
same,T/C,"dose: 12.5 mg/kg/injection, schedule: Q01DX009 (ip), vehicle: saline with Tween-80",103 % of control
same,T/C,[20],103 % of control
same,T/C,[14],107 % of control and 114 % of control
same,T/C,[15],107 % of control and 116 % of control
same,T/C,[19],115 % of control
COc1ccc(/C=N/NC(=O)COCC(=O)N/N=C/c2ccc(OC)cc2)cc1,T/C,[3],100 % of control
same,T/C,[4],88 % of control
same,T/C,[5],91 % of control
CCOC(=O)C(CCBr)SC (configuration not stated),T/C,[20],99 % of control
same,T/C,[14],100 % of control
same,T/C,[15],99 % of control
O=C(CN1C(=O)c2ccccc2C1=O)NC(Cc1ccccc1)C(=O)O (configuration not stated),T/C,[14],95 % of control
same,T/C,[15],105 % of control
same,T/C,[19],102 % of control
same,T/C,[21],95 % of control
CCCCCCCCCCC(O)CCCCCCCCCC,T/C,[10],95 % of control
same,T/C,[11],90 % of control
CCOC(=O)c1cc([N+](=O)[O-])c[nH]1,T/C,[14],97 % of control
same,T/C,[15],96 % of control
same,T/C,[19],95 % of control
same,T/C,[21],89 % of control
COC(=O)Nn1cc(C(C(C)=O)C(C)=O)c(C(C)=O)c1C,T/C,[12],99 % of control
same,T/C,[13],89 % of control

# From PubChem BioAssay AID330 (DTP/NCI, 2004)
